What was measured:
Type in all cases: in vivo
Myzus persicae [1] = assay: Myzus persicae spray test on bell pepper plants (MYZUPE S); details: 144 h, 6 dat, read-out: % Efficacy
Protocol: Myzus persicae—Spray Test (MYZUPE S)
(§1) Solvent: 14 parts by weight of dimethylformamide
(§2) Emulsifier: alkylaryl polyglycol ether
(§3) To produce a suitable active compound preparation, 1 part by weight of active compound is dissolved using the stated parts by weight of solvent and made up with water containing an emulsifier concentration of 1000 ppm until the desired concentration is attained. To produce further test concentrations, the formulation is diluted with emulsifier-containing water. If the addition of ammonium salts or/and penetrants is required, these are each added in a concentration of 1000 ppm to the formulation solution.
Bell pepper plants (Capsicum annuum) severely infested with the green peach aphid (Myzus persicae) are treated by spraying with the active compound formulation in the desired concentration.
After the desired time, the kill in % is determined. 100% means that all the animals have been killed; 0% means that no animals have been killed.

Myzus persicae [2] = assay: Myzus persicae oral test; details: 120 h, application rate 4 ppm, after 5 days, read-out: efficacy
Protocol: Solvent: 100 parts by weight of acetone
To produce a suitable preparation of active compound, 1 part by weight of active compound is dissolved using the specified parts by weight of solvent and made up with water until the desired concentration is attained.
50 μl of the active compound preparation are transferred into microtitre plates and made up to a final volume of 200 μl with 150 μl of IPL41 insect medium (33%+15% sugar). Subsequently, the plates are sealed with parafilm, which a mixed population of green peach aphids (Myzus persicae) within a second microtitre plate is able to puncture and imbibe the solution through it.
After 5 days, the efficacy in % is determined. 100% means that all the aphids have been killed; 0% means that no aphids have been killed.

Aphis gossypii = Aphis gossypii spray test (APHIGO S); details: 144 h, 6 dat, read-out: % Efficacy
Protocol: Aphis gossypii—Spray Test (APHIGO S)
as §1, §2, §3
Cotton plants (Gossypium hirsutum) heavily infested by the cotton aphid (Aphis gossypii) are sprayed with an active compound formulation of the desired concentration.
After the desired time, the kill in % is determined. 100% means that all the aphids have been killed; 0% means that no aphids have been killed.

Spodoptera frugiperda = Spodoptera frugiperda spray test; details: foliar, 168 h, application rate 100 g/ha, maize leaf discs, after 7 days, read-out: efficacy
Protocol: Spodoptera frugiperda—Spray Test
Solvent: • 78.0 parts by weight of acetone • 1.5 parts by weight of dimethylformamide
as §2
To produce further test concentrations, the formulation is diluted with emulsifier-containing water.
After 7 days, the efficacy in % is determined. 100% means that all the caterpillars have been killed; 0% means that no caterpillar has been killed.

Question: How did the Emax at 0.8 ppm (Myzus persicae [1]; 0.8 ppm) turn out when `CCS(=O)(=O)c1c(-c2nc3cc(C(F)(F)F)cnc3n2C)ncc2cc(C)ccc12` [Example I-015] was run?
Answer: 25%

Question: What about the Emax at 4 ppm (Myzus persicae [1]; 4 ppm) of the same molecule?
Answer: 100%

Question: And the pest or weed control at 4 ppm (Myzus persicae [2])?
Answer: 100%

Question: What about the Emax at 4 ppm (Aphis gossypii) of the same molecule?
Answer: 100%

Question: What about the pest or weed control at 100 g/ha (Spodoptera frugiperda) of the same molecule?
Answer: 83%

From patent publication US20230060425A1, “FUSED BICYCLIC HETEROCYCLE DERIVATIVES AS PESTICIDES” (Bayer Aktiengesellschaft, priority 2019, published 2023)
